Test results: PubChem BioAssay (NCI)
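Exposure lasted 48 hours, with cells grown in 96-well plates and compounds tested at five concentrations. Definition used: TGI = concentration required for complete inhibition of growth.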 Where a SMILES comes first, the peptide text is derived from it. Bridges are numbered along the chain shown (N, C = ends). The star is where a group is joined. Cbz = O=C(OCc1ccccc1)*

Key:
Assay in all cases: NCI tumour cell line growth inhibition, 48 h
OVCAR-5 ovarian = tested on: OVCAR-5 ovarian
KM12 colon = tested on: KM12 colon
MDA-N = tested on: MDA-N
LOX IMVI melanoma = tested on: LOX IMVI melanoma
SNB-75 CNS = tested on: SNB-75 CNS
CAKI-1 renal = tested on: CAKI-1 renal
TK-10 renal = tested on: TK-10 renal
RXF 393 renal = tested on: RXF 393 renal
MCF7 breast = tested on: MCF7 breast
CCRF-CEM leukemia = tested on: CCRF-CEM leukemia
A498 renal = tested on: A498 renal
A549 NSCLC = tested on: A549 NSCLC

| SMILES | TGI (OVCAR-5 ovarian) [µM] | TGI (KM12 colon) [µM] | TGI (MDA-N) [µM] | TGI (LOX IMVI melanoma) [µM] | TGI (SNB-75 CNS) [µM] | TGI (CAKI-1 renal) [µM] | TGI (TK-10 renal) [µM] | TGI (RXF 393 renal) [µM] | TGI (MCF7 breast) [µM] | TGI (CCRF-CEM leukemia) [µM] | TGI (A498 renal) [µM] | TGI (A549 NSCLC) [µM] |
| --- | --- | --- | --- | --- | --- | --- | --- | --- | --- | --- | --- | --- |
| CC(C)(C)C(=O)/C=C(\OB(F)F)C(C)(C)C | > 100 | > 100 | > 100 | > 100 | > 100 | > 100 | > 100 | > 100 | > 100 | > 100 | > 100 | > 100 |
| CNC(=O)C1CCCCNC(=O)CCC(NC(=O)OCc2ccccc2)C(=O)N1 (stereo not drawn) (Cbz-Glu-Lys-NHMe; lactam 1-2; configuration not given here) | > 100 | > 100 | > 100 | > 100 | > 100 | > 100 | > 100 | > 100 | > 100 | > 100 | > 100 | > 100 |
| O=C(O)c1cc(CCc2ccc(O)c(O)c2)ccc1O | > 100 | > 100 | 32.3 |  | > 100 | > 100 |  |  | > 100 | > 100 | > 100 | > 100 |
| O=C1C=CC2(C=C1)O[C@H](COCc1ccccc1)[C@@H](COCc1ccccc1)O2 | 3.04 | 14.3 | 3.53 | 3.51 | 13.4 | 5.88 | 4.17 | 1.31 | 2.3 |  | 34.1 | 39 |
| COc1ccc2c(-c3csc(-c4c[nH]c5ccc(Br)cc45)n3)c[nH]c2c1 | > 100 | > 100 | 30.8 | > 100 |  | > 100 | > 100 | 27.9 | > 100 | > 100 | > 100 | > 100 |
| Cc1ccc(S(=O)(=O)NNC(=O)Nc2cccc(C(F)(F)F)c2)cc1 | > 100 | > 100 | > 100 |  | 53.7 | > 100 | > 100 | > 100 | > 100 | > 100 | > 100 | > 100 |
| CC(NCc1c(O)ccc2c(-c3ccccc3)cc(=O)oc12)C(=O)O (configuration not stated) | > 100 | > 100 | > 100 | > 100 | > 100 | > 100 | > 100 | > 100 | > 100 | > 100 |  | > 100 |
| C=CCOC(=O)Cn1cnc2c(N)ncnc21 |  | > 100 | > 100 | > 100 | > 100 | > 100 | > 100 |  | > 100 | > 100 | > 100 | > 100 |
| CCOC(=O)c1nc2ccccc2nc1Oc1cc(OC)cc(OC)c1 | > 100 | > 100 | > 100 | > 100 |  |  | > 100 | > 100 | > 100 | > 100 | > 100 | > 100 |
| CC(=O)N1C=Cc2c(c(C)c3c([nH]c4ccccc43)c2C)C1 | 24 | 12 | 27.6 | 16.8 |  | 25.4 | 24.5 | 37.4 | 18.5 | > 100 | 28.3 | 24.2 |
| Cc1cccc(Nc2nc3ccccc3nc2NS(=O)(=O)c2ccc(N)cc2)c1 | > 100 | > 100 | > 100 | > 100 | > 100 | > 100 | > 100 | 70.5 | > 100 | 57.6 |  | > 100 |
| CN1CCN(Cn2nc(COc3ccccc3Cl)n(/N=C/c3ccc(-c4ccc(Cl)cc4Cl)o3)c2=S)CC1 | > 100 | 42.1 | 53.8 | > 100 |  | 50.4 | 62.4 | 32 | 53.3 | > 100 | 54.1 |  |
| C#CCN(Cc1ccc2nc(-c3ccccc3)c(Cl)nc2c1)c1ccc(F)cc1 | > 100 | > 100 | > 100 | > 100 | > 100 | > 100 | > 100 |  | > 100 | > 100 | > 100 | > 100 |
| COc1cccc(OC)c1C1ON=C(c2ccccc2)N1C12CC3CC(CC(C3)C1)C2 (configuration not stated) | > 100 | > 100 | > 100 | > 100 | > 100 | > 100 | > 100 | 11.9 | > 100 |  | > 100 | > 100 |
| COC(=O)c1c(O)c(C#N)c2[nH]c3ccccc3n2c1=O | > 100 | > 100 | > 100 |  | > 100 | > 100 | > 100 | > 100 | > 100 | > 100 | > 100 | > 100 |
| CCCc1nnc2sc(COc3ccc(OCc4nn5c(CCC)nnc5s4)c(Cl)c3)nn12 | > 100 | > 100 | 45.4 | > 100 | 73.7 | 60 | 93.5 | > 100 | 55.3 |  | 74.5 | > 100 |
| Clc1ccc(OCC2NC3CCC2CC3)cn1 (configuration not stated) | > 100 | 35.3 | 33.5 | 33.4 | > 100 | > 100 | > 100 | > 100 | 34.8 | 77 |  | > 100 |
| CCCCNC(=O)OCCN=c1c2ccccc2ccc2ccccc12 | > 100 | > 100 | > 100 | > 100 | > 100 | > 100 | > 100 | > 100 | > 100 | > 100 |  | > 100 |
| Fc1ccc(Nc2nc(Cl)c3[nH]cnc3n2)cc1Cl | > 100 | > 100 | > 100 | > 100 | > 100 | > 100 | > 100 |  | > 100 | > 100 | > 100 | > 100 |
| CN(C)c1cccc(-c2cc(=S)c3cc4c(cc3[nH]2)OCO4)c1 | > 100 | > 100 | 11.8 | > 100 |  | > 100 | > 100 | 43.3 | > 100 | > 100 | > 100 | > 100 |
